These results are taken from patent US20220325242A1, “IDH2 INHIBITION FOR PRODUCING T-CELLS AND B-CELLS WITH A MEMORY PHENOTYPE” (Universite de Lausanne, priority 2019, published 2022).

The subject of one assay is OT1 CD8+ T-cells. Description: Flow cytometry of surface activation and memory markers on in vitro cultured OT1 CD8+ T-cells. Format: cell-based, mouse. Conditions: 5 μM inhibitor day 0-3, flow cytometry on day 3 and 7. The procedure:
Example 2. In vitro culture of splenocytes comprising CD8+ T-cells. OT1 splenocytes (as described in Example 1) were cultured for 3 days at a concentration of 10^6 cells per mL in RPMI medium (Gibco 61870-01) supplemented with 10% FCS, (Gibco 10270-106), 1% Penicillin/Streptomycin (P/S; Gibco 15070-063), 0.1% 13-mercaptoethanol, 1% HEPES (Gibco 15630-080), 1× Non-essential amino acids (Gibco 11140-035), 1% L-glutamine (Gibco 25030-081), 1 mM Sodium Pyruvate (Gibco 11360-039), 100 U/m1 hIL-2 (Glaxo-IMB) and 1 μg/ml ovalbumin N4 peptide (SIINFEKL). To evaluate the effects of IDH2 inhibition on T-cell differentiation, 5 μM of a small molecule IDH2 inhibitor (AG221 or AGI6780) or a DMSO solvent control was added during this 3-day culture period. At day 3, a fraction of the splenocytes was collected and the remaining cells were cultured for 4 additional days with 100 U/ml hIL-2 and 10 ng/ml hIL-7 (Peprotech 200-07) supplementation after washing out the inhibitors and the ovalbumine N4 peptide (FIG. 1). At day 3 and day 7, the activation and differentiation state of CD8+ T-cells was determined by gene expression analysis, flow cytometry and extracellular metabolic flux analyses (see Example 3).
Cells were incubated in a live/dead stain (Fixable aqua dead cell stain kit, Invitrogen) followed by an incubation with different antibody panels.
Antibody panel to determine the differentiation and activation state of in vitro cultured T-cells (see Examples 2 and 4): anti-CD8-PE-texas-Red, anti-CD62L-FITC, anti-CD127-PE, anti-CD27-PerCP-Cy5.5, anti-CD71-PE-Cy7, anti-CD44-APC-Cy7, anti-CD98-APC, anti-CD25-Pacific blue (BD Pharmingen and eBioscience, San Diego, Calif., USA). All those antigens are surface molecules. Cells were gated on living single CD8+ cells before analysis of activation and memory marker expression. For the unstained control, cells were stained with the live/dead stain and anti-CD8-PE-texas-Red.
Cells were acquired on LSR-II flow cytometers from the flow cytometry facility of UNIL and data were analyzed with FlowJo™ 10 software. Antibodies were purchased from BD Phamingen (San Diego, Calif., USA), eBioscience (San Diego, Calif., USA, and Biolegend (San Diego, Calif., USA).
On the technique in general: In flow cytometry, cells or beads pass a laser one at a time.

Assay [1] relates to human CD8+ T-cells from umbilical cord blood. The assay can be described thus: CD62L flow cytometry of human cord blood mononuclear cells (CBMC). It is filed as cell-based. Conditions: day 11; AG221 5 μM, MK2206 1 μM; DMSO control about 35%. The procedure:
(§1) Methods: Mononuclear Cells were isolated from fresh umbilical cord blood on a Percoll Gradient (CBMCs). 10^4 CBMC's were seeded per well in a round bottom 96-well plate in RPMI with 10% human serum, and activated with (magnetic) αCD3/CD28 at a 1:2 cell:bead ratio and 300 U/ml rhIL-2, in the presence of 5 μM AG221 or DMSO, or 1 μM MK2206 (AKT inhibitor). After 11 days of culture, CD62L expression was analyzed by flow cytometry on a fraction of the cells (FIG. 15A). The other cells were washed 2 times and placed in a magnet to remove the inhibitors and the αCD3/CD28 beads. The cells were then rested for 4 hours before restimulating them for 4 hours with 1 ng/ml Phorbol 12-Myristate 13-Acetate (PMA, a PKC activator) and 50 μg/ml Ionomycin (a Ca^2+ ionophore, activating NF-KB and NFAT) in the presence of 50 μ/ml golgi inhibitor (Brefeldin A, BFA), allowing for the measurement of intracellular accumulation of different cytokines by flow cytometry.

The subject of the next assay is human CD8+ T-cells. The assay can be described thus: Cytokine expression after PMA and Ionomycin restimulation of human CBMC-derived T-cells. It is filed as cell-based. Conditions: day 11 cells, inhibitors washed out, PMA and ionomycin 4 hours. The procedure: as §1

For the molecule `O=C(Nc1cccc(C(F)(F)F)c1)Nc1cc(S(=O)(=O)NC2CC2)ccc1-c1ccsc1` [AGI6780, 1-[5-(cyclopropylsulfamoyl)-2-thiophen-3-ylphenyl]-3-[3-(trifluoromethyl)phenyl]urea], in the assay on OT1 CD8+ T-cells, the “CD62L surface expression compared to DMSO” value is reported as “increased” and the “other surface markers (CD25, CD44, CD71, CD98, CD27, CD127) compared to DMSO” value is “generally unchanged”.
Take `NC1(c2ccc(-c3nc4ccn5c(=O)[nH]nc5c4cc3-c3ccccc3)cc2)CCC1` [MK2206]: in assay [1], the “CD8+ cells expressing CD62L” value was “about 75%”. In addition, in the assay on human CD8+ T-cells, the “TNF expression upon restimulation” value was “unaffected”, the “expression of effector cytokine IFNγ upon restimulation” value is given as “detrimental” and the “production of IL-2 upon restimulation” value is “unaltered”.
